We go through 4 molecules from paper PMC4979471 (Cell Death Discovery, 2015).

Data set [1] has as its target T1, RIP1 (ATP-binding pocket) (Homo sapiens, UniProt Q13546).
T1 construct: GST-RipK1 (1–375) was purified; made in house
T1 sequence (Q13546 1-375): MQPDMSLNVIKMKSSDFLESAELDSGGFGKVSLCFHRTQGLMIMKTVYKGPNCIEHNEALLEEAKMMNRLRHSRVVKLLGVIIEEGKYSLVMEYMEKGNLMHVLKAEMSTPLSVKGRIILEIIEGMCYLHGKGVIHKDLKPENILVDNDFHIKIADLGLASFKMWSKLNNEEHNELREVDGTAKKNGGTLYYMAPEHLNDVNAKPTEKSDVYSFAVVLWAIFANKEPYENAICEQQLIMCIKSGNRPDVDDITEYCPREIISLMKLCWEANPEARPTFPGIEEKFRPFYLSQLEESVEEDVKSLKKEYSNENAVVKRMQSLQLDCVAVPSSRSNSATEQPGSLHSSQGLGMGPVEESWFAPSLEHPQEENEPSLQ
Description: Fluorescent polarization (FP) binding assay. How it is done:
A FP-based binding assay was developed to quantitate interaction of novel test compounds at the ATP-binding pocket of RIP1, by competition with a fluorescently labeled ATP-competitive ligand, as previously described.[18] In brief, GST-RipK1 (1–375) was purified and was used at a final assay concentration of 10 nM.

For a further data set, the system named is C57BL/6 mice. Description: TNF+zVAD-induced shock model (temperature loss). The conditions noted are these: 15 min before TNF+zVAD. Format: in vivo, mouse. As to the method: Temperature was monitored over the course of 3 h by rectal probe.
In the next data set the target is T2, RIP1 kinase (Homo sapiens, UniProt Q13546).
T2 construct: 10 nM GST-RIPK1 (1–375) and 50 μM ATP; made in house
Description: ADP-Glo kinase assay. Format: biochemical. As to the method:
Compound potency against RIP1 kinase activity was determined using an ADP-Glo luminescence assay, which measures the conversion of ATP to ADP as previously described.[18] In brief, the primary reaction consisted of 10 nM GST-RIPK1 (1–375) and 50 μM ATP in 50 mM HEPES pH 7.5, 50 mM NaCl, 30 mM MgCl2, 1 mM DTT, 0.5 mg/ml BSA, and 0.02% CHAPS. Five microliter of enzyme and 5 μl of ATP were added to the plate at twice the final assay concentration and incubated at room temperature for 4 h. The luminescence was measured on a plate reader. Test compound inhibition was expressed as percent inhibition of internal assay controls.

Data set [2] is described as follows: Pharmacokinetic profile after i.p. administration. Format: in vivo, C57BL/6 mice. As to conditions: 10 mg/kg i.p., mice. How it is done:
Briefly, pharmacokinetic studies were conducted using n=3 animals per group for each compound. […] Blood samples were obtained at various time points following intraperitoneal injection and diluted 1 : 1 with water prior to storage at −80 °C.
Prior to bioanalysis, samples were thawed and each analyte was isolated using a method based on protein precipitation. The resulting supernatant was injected into an LC/MS/MS system optimized for detection of the compound of interest. Data were reported as quantitative drug concentrations as determined by standard calibration curve analysis. Using these optimized conditions, the typical lower limit of quantitation achieved was 1.00 ng/ml for both compounds.

Data set [3] deals with indoleamine-2,3-dioxygenase (IDO). The conditions noted are these: cited from earlier work.
The conditions of data set [4]: cited from earlier work.
Another data set deals with T3, recombinant human IDO (Homo sapiens, UniProt P14902).
T3 construct: purchased R&D Systems (Minneapolis, MN, USA)
Description: IDO enzymatic assay. The data set is classed as biochemical. As to conditions: in vitro enzymatic assay.

The test system of data set [5] is mouse fibrosarcoma L929 cells. Description: TNF+zVAD-induced necroptosis, CellTiter-Glo. The data set is classed as cell-based. The conditions noted are these: overnight, read-out: IC50 blocking necroptosis. How it is done: (§1) Mouse fibrosarcoma L929 cells (ATCC# CCL-1) and human monocytic U937 cells (ATCC# CRL-1593.2) were cultured in RPMI media supplemented with 10% heat-inactivated FBS, 100 U/ml penicillin and […] streptomycin. BMDM were prepared from C57BL/6 mice by differentiation with 10 ng/ml M-CSF (R&D Systems) for 7 days and cultured in DMEM medium supplemented with 10% heat-inactivated FBS, 100 U/ml penicillin, 100 μg/ml streptomycin and 0.25 μg/ml amphotericin. Primary human neutrophils were isolated from human blood following the standard method comprised of sequential sedimentation in dextran, density centrifugation in Ficoll–Hypaque and lysis of contaminating red blood cells.
(§2) […] To evaluate the effect of RIP1 inhibitors, cells were pretreated with compound (dose–response) for 30 min. Induced cell death was evaluated 19–21 h later by measuring cellular ATP levels using CellTiter-Glo Luminescent Cell Viability assay (Promega, Fitchburg, WI, USA). To induce necroptosis in neutrophils, freshly isolated human neutrophils were stimulated with TNF (10 ng/ml), QVD-Oph (50 μM) and SMAC mimetic (100 nM). Induced cell death was evaluated as above.

The test system of data set [6] is human monocytic U937 cells. Description: TNF+zVAD-induced necroptosis, CellTiter-Glo. The data set is classed as cell-based. As to conditions: U-937, U937, overnight, read-out: IC50 blocking necroptosis. As to the method: as §1, §2
On the technique in general: Cellular ATP, detected with luciferase, serves as a proxy for viable cell number.

Structures are written as SMILES. Entries after “also recorded” stand apart in the source; their conditions may differ. Read-outs that look alike come from different tables or passages of the source.

By IC50 is commonly meant the midpoint of a concentration-inhibition curve.

T3 sequence (P14902 whole entry): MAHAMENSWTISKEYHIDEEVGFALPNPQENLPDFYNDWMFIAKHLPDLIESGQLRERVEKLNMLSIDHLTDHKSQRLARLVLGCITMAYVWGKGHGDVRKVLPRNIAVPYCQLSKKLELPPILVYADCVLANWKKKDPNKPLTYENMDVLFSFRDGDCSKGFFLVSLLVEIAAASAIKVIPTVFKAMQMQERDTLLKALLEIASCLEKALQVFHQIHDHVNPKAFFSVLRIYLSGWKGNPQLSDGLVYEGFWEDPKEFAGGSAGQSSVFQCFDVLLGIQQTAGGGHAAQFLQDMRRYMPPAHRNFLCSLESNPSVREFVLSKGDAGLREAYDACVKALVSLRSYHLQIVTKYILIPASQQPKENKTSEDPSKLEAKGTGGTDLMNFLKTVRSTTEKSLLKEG
Description for recombinant human IDO: IDO activity was determined as described by Takahashi et al.[25] using recombinant human IDO purchased from R&D Systems (Minneapolis, MN, USA). The yellow pigment derived from kynurenine was measured at 490 nm using the Spectramax microplate reader (Molecular Devices).

On to `CC(C)(C)C(=O)N1N=CC[C@@H]1c1ccccc1` [GSK′962], for which the “activity in the FP binding assay” value in data set [1] is recorded as “no activity”. In addition, the “protection from TNF+zVAD-induced temperature loss” value with C57BL/6 mice (20 mg/kg i.p.) is “no effect”. Further, the “activity in blocking RIP1 kinase activity” value on RIP1 kinase was “inactive”.

As to `CN1C(=O)C(Cc2c[nH]c3ccccc23)NC1=S` (stereo not shown) [Nec-1, Necrostatin-1, reference compound], the “exposure compared with GSK′963” value in data set [2] is recorded as ~ 10 fold. Further, the IC50 in data set [1] came out at 2000 nM; in data set [5], 1000 nM; in [6], 2000 nM; on RIP1 kinase (read-out: IC50 blocking RIP1 kinase activity), 1000 nM. Besides, the “drop off in potency relative to GSK′963 in the FP binding assay” value in [1] was ~ 70 fold. Besides, the figures for the IDO inhibition result in [3] (ref 22) and in [3] (ref 25) were “known to inhibit” and “potent inhibitor”, respectively. Besides, the “protection from TNF+zVAD-induced temperature loss” value in the data set on C57BL/6 mice (0.2 mg/kg i.p.) is given as “no effect”; in the data set with C57BL/6 mice (2 mg/kg i.p.), “minimal level of protection; also recorded: no significant protection”. In addition, the in vivo half-life result in data set [4] (ref 23) is “short”. For the same molecule, the metabolic stability entry in [4] (ref 23) was “quite limited”. Also, the “effect on IDO activity” value on recombinant human IDO is “no effect”.

With `CN1C(=O)NC(Cc2c[nH]c3c(Cl)cccc23)C1=O` (stereo not shown) [Nec-1s, 7-Cl-O-Nec-1], the IDO activity result in data set [3] (ref 24) is recorded as “lacks IDO activity”. Further, the pharmacokinetic properties result in data set [4] (ref 24) is listed as “improved pharmacokinetic properties”.

In the case of `CC1=CC(=O)c2ccccc2C1=O` [menadione, reference compound], the “effect on IDO activity” value on recombinant human IDO is reported as “inhibited enzyme activity with the expected potency”.
